Holding throughout (assay type): cell-based
Test [1] concerns SKMEL28 melanoma (SK-MeI-28) cells. As to the kind of experiment: Cell viability assay (MTT), SKMEL28. To be noted: Homo sapiens, SK-MEL-28, 48 hr treatment. How it is done: (§1) Cell viability assays were also conducted to assess the anti-proliferative effects of the anti-tropomyosin compounds. Briefly, cells (1×10^3/well) were plated (96-well) and treated (48 hr) with anti-tropomyosin drug and viability measured using 3-(4,5-dimethylthiazol-2-yl)-2,5-diphenylterazolium bromide MTT. Cell viability was normalized to control (vehicle alone) and dose-response curves, and half maximal effective concentration (EC50) values were determined using Graph Pad Prism 5 (nonlinear regression sigmoidal dose-response variable slope).

In test [2] the test system is SHEP neuroblastoma (SH-EP) cells. As to the kind of experiment: Cell viability assay (MTT), SHEP. As to conditions: 48 hr treatment. How it is done:
as §1

A further test relates to actin cytoskeleton. As to the kind of experiment: Microfilament disruption assay (phalloidin actin staining). To be noted: 24 hours. The procedure:
In silico modeling has identified binding sites on tropomyosin Tm5NM1, yielding the series of tropomyosin inhibitors the subject of the present invention. Inhibition of Tm5NM1 in tumour cells results in disruption of the actin cytoskeleton and ultimately cell death. The ability of compounds 2001-2012 to disrupt the actin cytoskeleton was assessed in vitro using the microfilament disruption assay. Briefly, cells were seeded (5×10^3/well) into 8-well chamber slides (NUNC) and treated with the concentrations of anti-tropomyosin compounds nominated in Table 1 for 24 hours using DMSO as vehicle control. Actin was visualized with Alexa 555 conjugated phalloidin (Molecular probes). Random fields were imaged using an Olympus IX81 microscope. Cells (n>50) were scored on the basis of positive filament staining from n=3 independent experiments.

Test [3] concerns SK-N-SH neuroblastoma cells. The experiment in a line: Anti-proliferative assay (cell-titre luminescent), SK-N-SH. As to conditions: Homo sapiens, 72 hours, luminescence. In a few lines:
(§2)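 Proliferation inhibition is measured by cell-titre luminescence after a 72 h treatment of pre-attached cells with compound at 30, 10, 3, 1, 0.3 and 0.1 μM. Vehicle-normalized curves give EC50 values.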

The next test relates to SK-Mel-28 melanoma cells. The experiment in a line: Anti-proliferative assay (cell-titre luminescent), SK-Mel-28. As to conditions: Homo sapiens; SK-Mel-28, 72 hours, luminescence. In a few lines: as §2
Test [4] relates to DU145 prostate cancer cells. The experiment in a line: Anti-proliferative assay (cell-titre luminescent), DU145. As to conditions: Homo sapiens, DU-145; DU145, 72 hours, luminescence. The procedure, abridged: as §2
Test [5] relates to PC3 prostate cancer cells. As to the kind of experiment: Anti-proliferative assay (cell-titre luminescent), PC3. To be noted: PC3, 72 hours, luminescence. The procedure, abridged: as §2
For test [6], the system named is CaCo2 colorectal cancer cells. The experiment in a line: Anti-proliferative assay (cell-titre luminescent), CaCo2. As to conditions: Homo sapiens, Caco-2; CaCo2, 72 hours, luminescence. In a few lines:
as §2

The next test concerns A549 lung (NSLC) cells. As to the kind of experiment: Anti-proliferative assay (cell-titre luminescent), A549. As to conditions: Homo sapiens; A549, 72 hours, luminescence. In a few lines: as §2
For test [7], the system named is MDA-MB-231 breast cancer cells. As to the kind of experiment: Anti-proliferative assay (cell-titre luminescent), MDA-MB-231. To be noted: Homo sapiens; MDA-MB-231, 72 hours, luminescence. The procedure, abridged:
as §2

For `C/C(=C\C(=O)N1CCN(CCc2ccccc2)CC1)c1c(C)n(CCCN(C)C)c2ccccc12` [Compound 2001, (E)-3-(1-(3-(dimethylamino)propyl)-2-methyl-1H-indol-3-yl)-1-(4-phenethylpiperazin-1-yl)but-2-en-1-one], the IC50 stood at 1.64 µM in [1] and 11.5 µM in test [2].
Regarding `Cc1c(/C=C/C(=O)N2CCN(CCc3ccc(F)cc3)CC2)c2ccccc2n1CCCN(C)C` [Compound 2002, (E)-3-(1-(3-(dimethylamino)propyl)-2-methyl-1H-indol-3-yl)-1-(4-(4-fluorophenethyl)piperazin-1-yl)prop-2-en-1-one], the IC50 is 2.01 µM in [1]; 9.6 µM in test [2]; 12.2 µM in [3]; 5.7 µM in the test on SK-Mel-28 melanoma cells; 11.1 µM in test [4]; 22.5 µM in test [5]. In addition, the half-inhibitory concentration (IC50) in test [6] worked out at 23.5 µM; in the test on A549 lung (NSLC) cells it was 11.9 µM; in test [7], 11.5 µM. In the test on actin cytoskeleton, the “Microfilament disruption 10 μM” value was “no cells”.
With `Cc1c(/C=C/C(=O)N2CCN(Cc3ccc(F)cc3)CC2)c2ccccc2n1CCCN(C)C` [Compound 2003, (E)-3-(1-(3-(dimethylamino)propyl)-2-methyl-1H-indol-3-yl)-1-(4-(4-fluorobenzyl)piperazin-1-yl)prop-2-en-1-one], the 50% inhibitory concentration (IC50) is 3.1 µM in test [1] and 2.3 µM in test [2]. Moreover, the “Microfilament disruption 10 μM” value with actin cytoskeleton is “no cells”.
Take `Cc1c(/C=C/C(=O)N2CCN(C(=O)c3ccccc3)CC2)c2ccccc2n1CCCN(C)C` [Compound 2004, (E)-1-(4-benzoylpiperazin-1-yl)-3-(1-(3-(dimethylamino)propyl)-2-methyl-1H-indol-3-yl)prop-2-en-1-one]: the IC50 is 32.7 µM in [1] and 198 µM in [2].
In the same order, the values of `CCCCN1CCN(C(=O)/C=C/c2c(C)n(CCCN(C)C)c3ccccc23)CC1` [Compound 2005, (E)-1-(4-butylpiperazin-1-yl)-3-(1-(3-(dimethylamino)propyl)-2-methyl-1H-indol-3-yl)prop-2-en-1-one] are 41 µM and 12.9 µM.
Regarding `Cc1c(/C=C/C(=O)N2CCN(CCc3ccccc3)CC2)c2ccccc2n1CCN(C)C` [Compound 2006, (E)-3-(1-(2-(dimethylamino)ethyl)-2-methyl-1H-indol-3-yl)-1-(4-phenethylpiperazin-1-yl)prop-2-en-1-one], the IC50 in [1] stood at 157 µM; in test [2], 12.5 µM.
Turning to `Cc1c(/C=C/C(=O)N2CCN(CCc3ccccc3)CC2)c2ccccc2n1CCCN1CCOCC1` [Compound 2007, (E)-3-(2-methyl-1-(3-morpholinopropyl)-1H-indol-3-yl)-1-(4-phenethylpiperazin-1-yl)prop-2-en-1-one], the half-maximal inhibitory concentration (IC50) was found to be 33.1 µM in test [1] and 24 µM in test [2].
Consider `Cc1c(/C=C/C(=O)N2CCN(CCc3ccccc3)CC2)c2ccccc2n1CCCN1CCN(C)CC1` [Compound 2008, (E)-3-(2-methyl-1-(3-(4-methylpiperazin-1-yl)propyl)-1H-indol-3-yl)-1-(4-phenethylpiperazin-1-yl)prop-2-en-1-one], for which the values for the IC50 in test [1] and in [2] were 3.7 µM and 1.92 µM, respectively. For the same compound, the “Microfilament disruption 10 μM” value in the test with actin cytoskeleton is on record as “no cells”.
Regarding `COc1ccc2c(c1)c(/C=C/C(=O)N1CCN(CCc3ccccc3)CC1)c(C)n2CCCN(C)C` [Compound 2009, (E)-3-(1-(3-(dimethylamino)propyl)-5-methoxy-2-methyl-1H-indol-3-yl)-1-(4-phenethylpiperazin-1-yl)prop-2-en-1-one], the IC50 in [1] was 1.86 µM; in [2], 2.4 µM; in test [3] it was 10.8 µM; in the test with SK-Mel-28 melanoma cells it was 6.5 µM; in test [4] it was 14.3 µM; in [5] it was 30 µM. The values for the IC50 (in [6]; with A549 lung (NSLC) cells; in test [7]) were 16.1 µM, 54.3 µM and 30 µM, respectively. Besides, in the test on actin cytoskeleton, the “Microfilament disruption 10 μM” value is recorded as “no cells”.
Take `COc1ccc(CN2CCN(C(=O)/C=C/c3c(C)n(CCCN(C)C)c4ccccc34)CC2)cc1` [Compound 2010, (E)-3-(1-(3-(dimethylamino)propyl)-2-methyl-1H-indol-3-yl)-1-(4-(4-methoxybenzyl)piperazin-1-yl)prop-2-en-1-one]: the IC50 in test [1] is 2.75 µM; in [2], 3.2 µM.
For `Cc1c(/C=C/C(=O)NCCc2ccccc2)c2ccccc2n1CCCN(C)C` [Compound 2011, (E)-3-(1-(3-(dimethylamino)propyl)-2-methyl-1H-indol-3-yl)-N-phenethylacrylamide], the concentration for half-maximal inhibition (IC50) in [1] was determined as 12.1 µM; in [2] it was 13.2 µM.
On to `Cc1nc(-c2cn(CCCN(C)C)c3ccccc23)cc(N2CCN(CCc3ccccc3)CC2)n1` [Compound 2012, N,N-dimethyl-3-(3-(2-methyl-6-(4-phenethylpiperazin-1-yl)pyrimidin-4-yl)-1H-indol-1-yl)propan-1-amine], for which the half-inhibitory concentration (IC50) in test [1] was determined as 3.2 µM; in test [2], 21.7 µM.
With `COc1ccc2c(c1)c(C(=O)N1CCN(CCc3ccccc3)CC1)c(C)n2CCCN1CCN(C)CC1` [Compound 2061, (5-methoxy-2-methyl-1-(3-(4-methylpiperazin-1-yl)propyl)-1H-indol-3-yl)(4-phenethylpiperazin-1-yl)methanone], the concentration for half-maximal inhibition (IC50) in [3] is above 30 µM; in the test with SK-Mel-28 melanoma cells, 8.7 µM; in test [4], above 30 µM; in test [5], above 30 µM; in test [6], above 30 µM; in the test on A549 lung (NSLC) cells it was above 30 µM. Moreover, the IC50 in test [7] is above 30 µM.
Consider `CCOc1ccc2c(c1)c(C(=O)N1CCN(CCc3ccc(F)cc3)CC1)c(C)n2CCCN(C)C` [Compound 2062, (1-(3-(dimethylamino)propyl)-5-ethoxy-2-methyl-1H-indol-3-yl)(4-(4-fluorophenethyl)piperazin-1-yl)methanone], for which the concentration for half-maximal inhibition (IC50) in [3] is 20.6 µM; with SK-Mel-28 melanoma cells, 9 µM; in test [4], above 30 µM; in test [5], 13.1 µM; in test [6], 18.6 µM; in the test with A549 lung (NSLC) cells, above 30 µM. The same compound registered a 50% inhibitory concentration (IC50) in test [7] of 8.1 µM.
On to `CCOc1ccc2c(c1)c(C(=O)N1CCN(CCc3ccc(F)cc3)CC1)c(C)n2CCCN(CC)CC` [Compound 2063, (1-(3-(diethylamino)propyl)-5-ethoxy-2-methyl-1H-indol-3-yl)(4-(4-fluorophenethyl)piperazin-1-yl)methanone], for which the IC50 in test [3] was 5.3 µM; with SK-Mel-28 melanoma cells, 3.5 µM; in test [4] it was 13 µM; in test [5], 7.2 µM; in [6], 4.1 µM; in the test with A549 lung (NSLC) cells, 10.9 µM. The IC50 in test [7] worked out at 3 µM.
As for `CCOc1ccc2c(c1)c(C(=O)N1CCN(CCc3ccc(F)cc3)CC1)c(C)n2CCCN1CCN(C)CC1` [Compound 2064, (5-ethoxy-2-methyl-1-(3-(4-methylpiperazin-1-yl)propyl)-1H-indol-3-yl)(4-(4-fluorophenethyl)piperazin-1-yl)methanone], the IC50 in test [3] came to 4.3 µM; with SK-Mel-28 melanoma cells it was 3.5 µM; in test [4], 14 µM; in test [5], 6.9 µM; in test [6], 29.1 µM; with A549 lung (NSLC) cells, 7.8 µM. For the same compound, the midpoint of inhibition in test [7], the IC50, lay at 5.8 µM.

Broadly, the IC50 is the concentration that gives 50% inhibition. Higher therefore signals a need for much substance.

Source of the values: patent US20170157135A1 (Novogen Limited, priority 2013, published 2017).
